Usually IC50 stands for the concentration at which inhibition is half-maximal. A lower IC50 goes with greater potency in that assay.

Where only a bound is given, the exact number is not on record here.

T1 sequence (Q9NZQ7 19-238 limits assumed): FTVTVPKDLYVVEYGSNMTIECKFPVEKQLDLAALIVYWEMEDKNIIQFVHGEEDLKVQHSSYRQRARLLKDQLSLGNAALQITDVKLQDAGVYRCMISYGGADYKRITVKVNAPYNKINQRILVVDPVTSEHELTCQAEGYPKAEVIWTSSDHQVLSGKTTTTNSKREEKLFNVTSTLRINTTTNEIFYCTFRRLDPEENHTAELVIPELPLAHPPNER

This test addresses T1, PD-1/PD-L1 interaction (Homo sapiens, UniProt Q9NZQ7).
T1 construct: Tag1 (undisclosed kit tag); purchased CisBio 63ADK000CPAPEG
As to the kind of experiment: PD-1/PD-L1 Homogenous Time-Resolved Fluorescence (HTRF) binding assay (CisBio kit). Particulars: Biochemical PD1/PD-L1 inhibition. The protocol:
PD-L1 Enzyme Assay: Homogenous Time-Resolved Fluorescence (HTRF) Binding Assay
All binding studies were performed using PD-1/PD-L1 Binding Assay Kit from CisBio (Catalog #63ADK000CPAPEG), according to the manufacturer's protocol. The interaction between Tag1-PD-1 and […] was detected by anti-Tag1-Eu^3+ (HTRF donor) and anti-Tag2-XL665 (HTRF acceptor). When the donor and acceptor antibodies were brought to close proximity due to PD-1 and PD-L1 binding, excitation of the donor antibody triggered fluorescent resonance energy transfer (FRET) towards the acceptor antibody, which in turn emitted specifically at 665 nm. This specific signal is positively proportional to PD-1/PD-L1 interaction. The compounds blocking PD-1/PD-L1 interaction will cause a reduction in HTRF signal. The necessary reagents were mixed in the following order: 2 μl compounds (or diluents buffer), 4 μl PD-L1 protein, 4 μl PD-1 protein. After an incubation of 15 minutes, 5 μl of anti-Tag1-Eu^3+ and 5 μl of anti-Tag2-XL665 were added. The plate was sealed and incubated at room temperature for 1 h. The fluorescence emission was read at two different wavelengths (665 nm and 620 nm) on a BMG PheraStar® multi-plate reader. Results were calculated from the 665 nm and 620 nm fluorescence signal and expressed in HTRF ratio=(665 nm/620 nm)×10^4.
Take `Cc1c(COc2cc(OCc3cccc(C#N)c3)c(CNCCCC(=O)O)c3c2CCC3)cccc1-c1ccccc1` [Compound 44, 4-(((5-((3-cyanobenzyl)oxy)-7-((2-methyl-[1,1′-biphenyl]-3-yl)methoxy)-2,3-dihydro-1H-inden-4-yl)methyl)amino)butanoic acid]: the concentration for half-maximal inhibition (IC50) is < 100 nM.

Turning to `Cc1c(COc2cc(OCc3cncc(C#N)c3)c(CN3CCCC[C@H]3C(=O)O)c3c2CCC3)cccc1-c1ccccc1` [Compound 46, (S)-1-((5-((5-cyanopyridin-3-yl)methoxy)-7-((2-methyl-[1,1′-biphenyl]-3-yl)methoxy)-2,3-dihydro-1H-inden-4-yl)methyl)piperidine-2-carboxylic acid], the IC50 is < 100 nM.

Take `Cc1c(COc2cc(OCc3cncc(C#N)c3)c(CN3C[C@H](O)C[C@H]3C(=O)O)c3c2CCC3)cccc1-c1ccccc1` [Compound 47, (2S,4R)-1-((5-((5-cyanopyridin-3-yl)methoxy)-7-((2-methyl-[1,1′-biphenyl]-3-yl)methoxy)-2,3-dihydro-1H-inden-4-yl)methyl)-4-hydroxypyrrolidine-2-carboxylic acid]: the IC50 was < 100 nM.

Turning to `CC(=O)NCCNCc1c(OCc2cncc(C#N)c2)cc(OCc2cccc(-c3ccccc3)c2C)c2c1CCC2` [Compound 48, N-(2-(((5-((5-cyanopyridin-3-yl)methoxy)-7-((2-methyl-[1,1′-biphenyl]-3-yl)methoxy)-2,3-dihydro-1H-inden-4-yl)methyl)amino)ethyl)acetamide], the IC50 was < 100 nM.

Turning to `Cc1c(COc2cc(OCc3cncc(C#N)c3)c(CNC(CO)(CO)CO)c3c2CCC3)cccc1-c1ccccc1` [Compound 49, 5-(((4-(((1,3-dihydroxy-2-(hydroxymethyl)propan-2-yl)amino)methyl)-7-((2-methyl-[1,1′-biphenyl]-3-yl)methoxy)-2,3-dihydro-1H-inden-5-yl)oxy)methyl)nicotinonitrile], the IC50 was < 100 nM.

Take `Cc1c(COc2cc(OCc3cncc(C#N)c3)c(CN3CCOC[C@H]3C(=O)O)c3c2CCC3)cccc1-c1ccccc1` [Compound 50, (S)-4-((5-((5-cyanopyridin-3-yl)methoxy)-7-((2-methyl-[1,1′-biphenyl]-3-yl)methoxy)-2,3-dihydro-1H-inden-4-yl)methyl)morpholine-3-carboxylicacid]: the IC50 is < 100 nM.

Turning to `Cc1c(COc2cc(OCc3cncc(C#N)c3)c(CN3CC4(CC4)C[C@H]3C(=O)O)c3c2CCC3)cccc1-c1ccccc1` [Compound 52, (S)-5-((5-((5-cyanopyridin-3-yl)methoxy)-7-((2-methyl-[1,1′-biphenyl]-3-yl)methoxy)-2,3-dihydro-1H-inden-4-yl)methyl)-5-azaspiro[2.4]heptane-6-carboxylic acid], the IC50 was < 100 nM.

Take `CC(=O)NCCN(C)Cc1c(OCc2cccc(C#N)c2)cc(OCc2cccc(-c3ccccc3)c2C)c2c1CCC2` [Compound 53, N-(2-(((5-((3-cyanobenzyl)oxy)-7-((2-methyl-[1,1′-biphenyl]-3-yl)methoxy)-2,3-dihydro-1H-inden-4-yl)methyl)(methyl)amino)ethyl)acetamide]: the IC50 was < 100 nM.

`CC(=O)NCCNCc1c(OCc2ccc(C#N)cc2)cc(OCc2cccc(-c3ccccc3)c2C)c2c1CCC2` [Compound 54, N-(2-(((5-((4-cyanobenzyl)oxy)-7-((2-methyl-[1,1′-biphenyl]-3-yl)methoxy)-2,3-dihydro-1H-inden-4-yl)methyl)amino)ethyl)acetamide]: the IC50 lay in the range of 100 to 500 nM.

With `COc1cc(OCc2cccc(-c3ccccc3)c2C#N)c2c(c1CN1CCCC[C@H]1C(=O)O)CCC2` [Compound 55, (S)-1-((7-((2-cyano-[1,1′-biphenyl]-3-yl)methoxy)-5-methoxy-2,3-dihydro-1H-inden-4-yl)methyl)piperidine-2-carboxylic acid], the IC50 was < 100 nM.

As for `COc1cc(OCc2cccc(-c3ccccc3)c2C#N)c2c(c1CNCCNC(C)=O)CCC2` [Compound 56, N-(2-(((7-((2-cyano-[1,1′-biphenyl]-3-yl)methoxy)-5-methoxy-2,3-dihydro-1H-inden-4-yl)methyl)amino)ethyl)acetamide], the IC50 is < 100 nM.

Consider `COc1cc(OCc2cccc(-c3ccccc3)c2C#N)c2c(c1CN1C[C@H](O)C[C@H]1C(=O)O)CCC2` [Compound 57, (2S,4R)-1-((7-((2-cyano-[1,1′-biphenyl]-3-yl)methoxy)-5-methoxy-2,3-dihydro-1H-inden-4-yl)methyl)-4-hydroxypyrrolidine-2-carboxylic acid], for which the IC50 is < 100 nM.

With `COc1cc(OCc2cccc(-c3ccccc3)c2C#N)c2c(c1CNC(CO)(CO)CO)CCC2` [Compound 58, 3-(((7-(((1,3-dihydroxy-2-(hydroxymethyl)propan-2-yl)amino)methyl)-6-methoxy-2,3-dihydro-1H-inden-4-yl)oxy)methyl)-[1,1′-biphenyl]-2-carbonitrile], the half-maximal inhibitory concentration (IC50) is < 100 nM.

On to `COc1cc(OCc2cccc(-c3ccccc3)c2C#N)c2c(c1CN1CCOC[C@H]1C(=O)O)CCC2` [Compound 59, (S)-4-((7-((2-cyano-[1,1′-biphenyl]-3-yl)methoxy)-5-methoxy-2,3-dihydro-1H-inden-4-yl)methyl)morpholine-3-carboxylic acid], for which the IC50 was < 100 nM.

As to `COc1cc(OCc2cccc(-c3ccccc3)c2C#N)c2c(c1CNCC(=O)O)CCC2` [Compound 60, ((7-((2-cyano-[1,1′-biphenyl]-3-yl)methoxy)-5-methoxy-2,3-dihydro-1H-inden-4-yl)methyl)glycine], the IC50 was < 100 nM.

`COc1cc(OCc2cccc(-c3ccccc3)c2C#N)c2c(c1CN1CC3(CC3)C[C@H]1C(=O)O)CCC2` [Compound 61, (S)-5-((7-((2-cyano-[1,1′-biphenyl]-3-yl)methoxy)-5-methoxy-2,3-dihydro-1H-inden-4-yl)methyl)-5-azaspiro[2.4]heptane-6-carboxylic acid]: the IC50 was < 100 nM.

`COc1cc(OCc2cccc(-c3ccccc3)c2C#N)c2c(c1CN1CCCCC1CC(=O)O)CCC2` (stereo not shown) [Compound 63, 2-(1-((7-((2-cyano-[1,1′-biphenyl]-3-yl)methoxy)-5-methoxy-2,3-dihydro-1H-inden-4-yl)methyl)piperidin-2-yl)acetic acid] yielded an IC50 of 100 to 500 nM.

Regarding `COc1cc(OCc2cccc(-c3ccccc3)c2C#N)c2c(c1CN(C)CCN(C)C(C)=O)CCC2` [Compound 64, N-(2-(((7-((2-cyano-[1,1′-biphenyl]-3-yl)methoxy)-5-methoxy-2,3-dihydro-1H-inden-4-yl)methyl)(methyl)amino)ethyl)-N-methylacetamide], the IC50 lay in the range of 100 to 500 nM.

`CC(=O)NCCNCc1c(OCCCCC(=O)O)cc(OCc2cccc(-c3ccccc3)c2C)c2c1CCC2` [Compound 65, 5-((4-(((2-acetamidoethyl)amino)methyl)-7-((2-methyl-[1,1′-biphenyl]-3-yl)methoxy)-2,3-dihydro-1H-inden-5-yl)oxy)pentanoic acid]: the IC50 is < 100 nM.

As for `CC(=O)NCCNCc1c(OCCCCC(N)=O)cc(OCc2cccc(-c3ccccc3)c2C)c2c1CCC2` [Compound 66, 5-((4-(((2-acetamidoethyl)amino)methyl)-7-((2-methyl-[1,1′-biphenyl]-3-yl)methoxy)-2,3-dihydro-1H-inden-5-yl)oxy)pentanamide], the IC50 was 100 to 500 nM.

In the case of `Cc1c(COc2cc(OCCCCC(=O)O)c(CN3CCCC[C@H]3C(=O)O)c3c2CCC3)cccc1-c1ccccc1` [Compound 67, (S)-1-((5-(4-carboxybutoxy)-7-((2-methyl-[1,1′-biphenyl]-3-yl)methoxy)-2,3-dihydro-1H-inden-4-yl)methyl)piperidine-2-carboxylic acid], the IC50 was < 100 nM.

As to `Cc1c(COc2cc(OCCCCC(N)=O)c(CN3CCCC[C@H]3C(=O)O)c3c2CCC3)cccc1-c1ccccc1` [Compound 68, (S)-1-((5-((5-amino-5-oxopentyl)oxy)-7-((2-methyl-[1,1′-biphenyl]-3-yl)methoxy)-2,3-dihydro-1H-inden-4-yl)methyl)piperidine-2-carboxylic acid], the IC50 is < 100 nM.

Regarding `N#Cc1cncc(COc2cc(OCc3cccc(-c4ccccc4)c3C#N)c3c(c2CN2CCCC[C@H]2C(=O)O)CCC3)c1` [Compound 69, (S)-1-((7-((2-cyano-[1,1′-biphenyl]-3-yl)methoxy)-5-((5-cyanopyridin-3-yl)methoxy)-2,3-dihydro-1H-inden-4-yl)methyl)piperidine-2-carboxylic acid], the IC50 is < 100 nM.

Take `N#Cc1cncc(COc2cc(OCc3cccc(-c4ccccc4)c3C#N)c3c(c2CN2C[C@H](O)C[C@H]2C(=O)O)CCC3)c1` [Compound 70, (2S,4R)-1-((7-((2-cyano-[1,1′-biphenyl]-3-yl)methoxy)-5-((5-cyanopyridin-3-yl)methoxy)-2,3-dihydro-1H-inden-4-yl)methyl)-4-hydroxypyrrolidine-2-carboxylic acid]: the IC50 is < 100 nM.

In the case of `N#Cc1cncc(COc2cc(OCc3cccc(-c4ccccc4)c3C#N)c3c(c2CN2CCC[C@@H](C(=O)O)C2)CCC3)c1` [Compound 71, (R)-1-((7-((2-cyano-[1,1′-biphenyl]-3-yl)methoxy)-5-((5-cyanopyridin-3-yl)methoxy)-2,3-dihydro-1H-inden-4-yl)methyl)piperidine-3-carboxylic acid], the IC50 was < 100 nM.

The record behind these values is patent US11529341B2, “Bicyclic compounds as inhibitors of PD1/PD-L1 interaction/activation” (JUBILANT PRODEL LLC, priority 2018, dated 2022).
